# Results as given in ChEMBL document CHEMBL4680293, “Tubulin inhibitory activity of a novel colchicine-binding compounds based on a dinaphthospiropyranran scaffold” (Bioorg Med Chem, 2021).
# pIC50: −log10 of the molar value. Calls of active or inactive are those of the source. The rule behind the calls is not given here.
# Key:
# [1] = test system: LOX IMVI; test: Anti-cancer activity against human LOX IMVI cells assessed as cell growth inhibition measured after 48 hrs by SRB method; type: functional, cell-based
# [2] = test system: CCRF-CEM; test: Anti-cancer activity against human CCRF-CEM cells assessed as cell growth inhibition measured after 48 hrs by SRB assay; type: functional, cell-based
# [3] = test system: HL-60(TB); test: Anti-cancer activity against human HL-60(TB) cells assessed as cell growth inhibition measured after 48 hrs by SRB method; type: functional, cell-based
# [4] = test system: SR; test: Anti-cancer activity against human SR cells assessed as cell growth inhibition measured after 48 hrs by SRB method; type: functional, cell-based
# [5] = test system: HCT-15; test: Anti-cancer activity against human HCT-15 cells assessed as cell growth inhibition measured after 48 hrs by SRB method; type: functional, cell-based
# [6] = test system: SW-620; test: Anti-cancer activity against human SW-620 cells assessed as cell growth inhibition measured after 48 hrs by SRB method; type: functional, cell-based
# [7] = test system: SF-268; test: Anti-cancer activity against human SF-268 cells assessed as cell growth inhibition measured after 48 hrs by SRB method; type: functional, cell-based
# [8] = test system: SF-295; test: Anti-cancer activity against human SF-295 cells assessed as cell growth inhibition measured after 48 hrs by SRB method; type: functional, cell-based
# [9] = test system: Malme-3M; test: Anti-cancer activity against human Malme-3M cells assessed as cell growth inhibition measured after 48 hrs by SRB method; type: functional, cell-based
# [10] = test system: M14; test: Anti-cancer activity against human M14 cells assessed as cell growth inhibition measured after 48 hrs by SRB method; type: functional, cell-based
# [11] = test system: UACC-257; test: Anti-cancer activity against human UACC-257 cells assessed as cell growth inhibition measured after 48 hrs by SRB method; type: functional, cell-based
# [12] = test system: IGROV-1; test: Anti-cancer activity against human IGROV1 cells assessed as cell growth inhibition measured after 48 hrs by SRB method; type: functional, cell-based
# [13] = test system: SK-OV-3; test: Anti-cancer activity against human SK-OV-3 cells assessed as cell growth inhibition measured after 48 hrs by SRB method; type: functional, cell-based
# [14] = test system: BT-549; test: Anti-cancer activity against human BT-549 cells assessed as cell growth inhibition measured after 48 hrs by SRB method; type: functional, cell-based
# [15] = test system: EKVX; test: Anti-cancer activity against human EKVX cells assessed as cell growth inhibition measured after 48 hrs by SRB method; type: functional, cell-based
# [16] = test system: HOP-62; test: Anti-cancer activity against human HOP-62 cells assessed as cell growth inhibition measured after 48 hrs by SRB method; type: functional, cell-based
# [17] = test system: HOP-92; test: Anti-cancer activity against human HOP-92 cells assessed as cell growth inhibition measured after 48 hrs by SRB method; type: functional, cell-based
# [18] = test system: NCI-H460; test: Anti-cancer activity against human NCI-H460 cells assessed as cell growth inhibition measured after 48 hrs by SRB method; type: functional, cell-based
# [19] = test system: RXF 393; test: Anti-cancer activity against human RXF 393 cells assessed as cell growth inhibition measured after 48 hrs by SRB method; type: functional, cell-based
# [20] = test system: SN12C; test: Anti-cancer activity against human SN12C cells assessed as cell growth inhibition measured after 48 hrs by SRB method; type: functional, cell-based
# [21] = test system: TK-10; test: Anti-cancer activity against human TK-10 cells assessed as cell growth inhibition measured after 48 hrs by SRB method; type: functional, cell-based
# [22] = test system: Leukemia cell; test: Anti-cancer activity against human leukemia cells assessed as cell growth inhibition measured after 48 hrs by SRB method; type: functional
# [23] = target: Tubulin (Homo sapiens) (UniProt P68371+Q9H4B7+P0DPH7+P68366+Q13509+Q71U36+P04350+Q3ZCM7+P07437+P68363+Q9BQE3+Q6PEY2+Q13885+Q9BVA1+Q9BUF5); test: Inhibition of tubulin (unknown origin) assessed as inhibition of tubulin polymerization at 10 uM measured for 50 mins by fluorescence based analysis; type: protein-complex assay
# [24] = Anti-cancer activity against human ovarian cancer cells assessed as cell growth inhibition measured after 48 hrs by SRB method; type: functional; details: Ovarian cancer cell line
# [25] = Anti-cancer activity against human breast cancer cells assessed as cell growth inhibition measured after 48 hrs by SRB method; type: functional; details: Breast cancer cell line
# [26] = Anti-cancer activity against human non-small lung cancer cells assessed as cell growth inhibition measured after 48 hrs by SRB method; type: functional; details: Non-small cell lung cancer cell line
# [27] = Anti-cancer activity against human renal cancer cells assessed as cell growth inhibition measured after 48 hrs by SRB method; type: functional; details: Renal cancer cell line
# [28] = test system: A498; test: Anti-cancer activity against human A498 cells assessed as cell growth inhibition measured after 48 hrs by SRB method; type: functional, cell-based
# [29] = time 48 hrs, read-out: LC50 (the source's name)
structure (smiles),measurement,setting,value
C1=C2CNCC3=Cc4c(ccc5ccccc45)OC23Oc2ccc3ccccc3c21,pIC50,[1]; 48 h,5.47
same,GI50,[1]; time 48 hrs,2.45 µM
same,LC50 (50% lethal concentration),[1]; time 48 hrs,4 µM
same,TGI,[1]; time 48 hrs,7.41 µM
same,pIC50,[2]; 48 h,5.27
same,GI50,[2]; time 48 hrs,3.63 µM
same,TGI,[2]; time 48 hrs,100 µM
same,CC50,[2]; [29],4 µM
same,pIC50,"[3]; HL-60, 48 h",5.27
same,GI50,"[3]; HL-60, time 48 hrs",5.57 µM
same,TGI,"[3]; HL-60, time 48 hrs",5.11 µM
same,CC50,"[3]; HL-60, time 48 hrs, read-out: LC50 (the source's name)",4.07 µM
same,pIC50,[4]; 48 h,5.42
same,GI50,[4]; time 48 hrs,2.19 µM
same,LC50,[4]; time 48 hrs,4 µM
same,TGI,[4]; time 48 hrs,5.37 µM
same,pIC50,"[5]; HCT-15, 48 h",5.26
same,GI50,"[5]; HCT-15, time 48 hrs",3.89 µM
same,LC50,"[5]; HCT-15, time 48 hrs",4 µM
same,TGI,"[5]; HCT-15, time 48 hrs",22.4 µM
same,pIC50,"[6]; SW-620, 48 h",5.51
same,GI50,"[6]; SW-620, time 48 hrs",2.51 µM
same,TGI,"[6]; SW-620, time 48 hrs",10.5 µM
same,CC50,"[6]; SW-620, time 48 hrs, read-out: LC50 (the source's name)",4.28 µM
same,pIC50,"[7]; SF-268, 48 h",4.91
same,GI50,"[7]; SF-268, time 48 hrs",5.62 µM
same,TGI,"[7]; SF-268, time 48 hrs",22.4 µM
same,CC50,"[7]; SF-268, time 48 hrs, read-out: LC50 (the source's name)",4.15 µM
same,pIC50,"[8]; SF-295, 48 h",5.28
same,GI50,"[8]; SF-295, time 48 hrs",3.09 µM
same,TGI,"[8]; SF-295, time 48 hrs",15.5 µM
same,CC50,"[8]; SF-295, time 48 hrs, read-out: LC50 (the source's name)",4 µM
same,pIC50,[9]; 48 h,4.44
same,GI50,[9]; time 48 hrs,12.6 µM
same,LC50 (50% lethal concentration),[9]; time 48 hrs,4 µM
same,TGI,[9]; time 48 hrs,38 µM
same,pIC50,"[10]; M14, 48 h",5.42
same,GI50,"[10]; M14, time 48 hrs",2.19 µM
same,TGI,"[10]; M14, time 48 hrs",5.13 µM
same,CC50,"[10]; M14, time 48 hrs, read-out: LC50 (the source's name)",4.56 µM
same,pIC50,"[11]; UACC-257, 48 h",4.43
same,GI50,"[11]; UACC-257, time 48 hrs",12.6 µM
same,LC50 (50% lethal concentration),"[11]; UACC-257, time 48 hrs",4 µM
same,TGI,"[11]; UACC-257, time 48 hrs",38.9 µM
same,pIC50,"[12]; IGROV-1, 48 h",4.68
same,GI50,"[12]; IGROV-1, time 48 hrs",9.55 µM
same,LC50 (concentration killing 50% of cells),"[12]; IGROV-1, time 48 hrs",4.08 µM
same,TGI,"[12]; IGROV-1, time 48 hrs",28.8 µM
same,pIC50,"[13]; SK-OV-3, 48 h",5.09
same,GI50,"[13]; SK-OV-3, time 48 hrs",3.39 µM
same,TGI,"[13]; SK-OV-3, time 48 hrs",12.9 µM
same,CC50,"[13]; SK-OV-3, time 48 hrs, read-out: LC50 (the source's name)",4.26 µM
same,pIC50,"[14]; BT-549, 48 h",4.39
same,GI50,"[14]; BT-549, time 48 hrs",11.2 µM
same,TGI,"[14]; BT-549, time 48 hrs",40.7 µM
same,CC50,"[14]; BT-549, time 48 hrs, read-out: LC50 (the source's name)",4 µM
same,pIC50,[15]; 48 h,4.70
same,GI50,[15]; time 48 hrs,5.75 µM
same,TGI,[15]; time 48 hrs,33.9 µM
same,pIC50,"[16]; HOP-62, 48 h",4.91
same,GI50,"[16]; HOP-62, time 48 hrs",4.47 µM
same,TGI,"[16]; HOP-62, time 48 hrs",16.6 µM
same,pIC50,"[17]; HOP-92, 48 h",4.57
same,GI50,"[17]; HOP-92, time 48 hrs",2.88 µM
same,TGI,"[17]; HOP-92, time 48 hrs",17 µM
same,pIC50,"[18]; NCI-H460, 48 h",5.43
same,GI50,"[18]; NCI-H460, time 48 hrs",3.24 µM
same,TGI,"[18]; NCI-H460, time 48 hrs",13.2 µM
same,CC50,"[18]; NCI-H460, time 48 hrs, read-out: LC50 (the source's name)",4.14 µM
same,pIC50,"[19]; RXF 393, 48 h",5.30
same,GI50,"[19]; RXF 393, time 48 hrs",1.78 µM
same,TGI,"[19]; RXF 393, time 48 hrs",6.17 µM
same,CC50,"[19]; RXF 393, time 48 hrs, read-out: LC50 (the source's name)",4.32 µM
same,pIC50,[20]; 48 h,5.12
same,GI50,[20]; time 48 hrs,4.27 µM
same,TGI,[20]; time 48 hrs,20 µM
same,CC50,[20]; [29],4.08 µM
same,pIC50,"[21]; TK-10, 48 h",4.57
same,GI50,"[21]; TK-10, time 48 hrs",9.12 µM
same,TGI,"[21]; TK-10, time 48 hrs",27.5 µM
same,GI50,[22],3.16 µM
same,inhibition,[23],Active
same,GI50,[24],3.63 µM
same,GI50,[25],4.68 µM
same,GI50,[26],5.13 µM
same,GI50,[27],3.98 µM
same,pIC50,"[28]; A498, 48 h",4.79
same,GI50,"[28]; A498, time 48 hrs",3.89 µM
same,TGI,"[28]; A498, time 48 hrs",17 µM
same,CC50,"[28]; A498, time 48 hrs, read-out: LC50 (the source's name)",4.34 µM
